Source: US20140213583A1, “PI3K Inhibitor for Use in the Treatment of Bone Cancer or for Preventing Metastatic Dissemination Primary Cancer Cells into the Bone” (NOVARTIS AG, priority 2011, published 2014)
Entries after “also recorded” stand apart in the source; their conditions may differ.

Tests used:
[1] = tested on: 453-EGFP cells (MDA-MB-453 human breast cancer cells expressing EGFP); experiment: Metastasis therapy with Compound A in Rag2-/-;Il2rg-/- mice challenged i.v. with 453-EGFP cells; assay type: in vivo; conditions: 50 mg/kg per os daily
From the text: Rag2^−/−;Il2rg^−/− breeders were kindly given by Drs. T. Nomura and M. Ito of the Central Institute for Experimental Animals (Kawasaki, Japan). Mice were then bred in our animal facilities under sterile conditions. Athymic Crl:CD-1-Foxn1^nu/nu mice (referred to as nude mice) were purchased from Charles River Italy and kept under sterile conditions. Experiments were authorized by the institutional review board of the University of Bologna and done according to Italian and European guidelines.
MDA-MB-453 and BT-474 breast cancer cell lines were originally obtained from by Dr. Serenella M. Pupa (Istituto Nazionale dei Tumori, Milan, Italy). Cell lines were authenticated by DNA fingerprinting on the 11 Nov. 2010 (performed by DSMZ, Braunschweig, Germany). Cells were routinely cultured in Roswell Park Memorial Institute (RPMI) medium supplemented with 10% foetal bovine serum and were maintained at 37° C. in a humidified 5% CO2 atmosphere. All medium constituents were purchased from Invitrogen, Milan, Italy. In order to visualize metastatic cells/lesions, breast cancer cell lines were transfected with a plasmid expressing Enhanced Green Fluorescent Protein (pEGFP-N1, Clontech, Mountain View, Calif.) using Lipofectamine 2000 (Invitrogen). Stable transfectants were selected using G418 (Invitrogen). EGFP expression was monitored by fluorescence microscopy and quantified by cytofluorimetric analysis.
Nine-20-week-old female Rag2^−/−;Il2rg^−/− mice were used throughout this work. Local tumors were induced with 10^7 viable human tumour cells injected either subcutaneously in the right hind leg or in the fat pad of the fourth (abdominal) left mammary gland in 0.2 ml of PBS. Tumor diameters were periodically measured with digital calipers and tumor volumes calculated as […], where a=maximal tumor diameter and b=major tumor diameter perpendicular to a. For intravenous (i.v.) administrations, 2×10^6 cells in 0.4 ml PBS were injected in a tail vein. Nude mice (5-6 week-old) were treated i.v. with anti-asialo GM1 antiserum (Wako, Dusseldorf, Germany), 0.4 ml of a 1:30 dilution in PBS, to deplete NK activity, 24 h prior to the injection of human tumour cells. Pilot experiments were performed to assess for each cell line the time at which experimental metastases could be detected.
Tumor-bearing mice were sacrificed at various times (see Results), depending on tumor and metastasis growth, and were subjected to an accurate necropsy. Lungs were stained with black India ink to better outline metastases and fixed in Fekete's solution. Lung and liver metastases were counted using a dissection microscope. When EGFP-expressing cells were injected, whole mice and dissected organs were carefully examined using a Lightools imaging system (Lightools Research, Encinitas, Calif.) to detect fluorescent metastatic deposits. Quantification of metastatic load in brain and bone marrow was performed by immunofluorescence followed by cytofluorimetric analysis and by Real-Time PCR. Brain was minced with scissors and passed through a 70 μm cell strainer (Becton Dickinson, Bedford, Mass., USA) to obtain a homogeneous cell suspension. Bone marrow was flushed from both femurs in PBS and filtered through a 70 μm strainer. A mouse monoclonal antibody against human HER-2 (clone Neu 24.7, Becton Dickinson, San Jose, Calif., USA) labeled with phycoerythrin was used to quantify human cells by cytofluorometric analysis. Real-Time PCR was performed on genomic DNA extracted with 10 mM Tris-HCl buffer pH 8.3 containing 50 mM KCl, 2.5 mM MgCl2, 0.01% gelatin, 0.45% igepal, 0.45% tween 20 and 120 μg/ml proteinase K (all reagents from Sigma, Milan, Italy) by an overnight incubation at 56° C. followed by […] incubation at 95° C. to inactivate the proteinase K. A sequence of the α-satellite region of the human chromosome 17 was amplified. […]

[2] = from reference (8); cited from earlier work

Structure (SMILES): Nc1cc(C(F)(F)F)c(-c2cc(N3CCOCC3)nc(N3CCOCC3)n2)cn1 [Compound A, 5-(2,6-di-morpholin-4-yl-pyrimidin-4-yl)-4-trifluoromethyl-pyridin-2-ylamine]
- inhibition in the number of human cells in the brain, HER-2 flow cytometry ([1]; 37 treatments, HER-2-positive cells in dissociated brain (FIG. 2B)): > 90%
- inhibition in the number of human cells in the brain, human-specific qPCR ([1]; 37 treatments, brain metastatic burden by qPCR (FIG. 2A)): > 90%
- number of bone metastases decreased ([1]; 37 treatments, visual count of metastatic sites per mouse (FIG. 2C)): 67%
- growth of 453-EGFP in heavily colonized organs (brain and lungs) ([1]; brain and lungs (FIG. 1B-C)): strongly inhibited
- incidence of metastases in different sites ([1]; brain, bone marrow and liver, p<0.05 at least, Fisher's exact test (FIG. 1A)): a sizeable proportion of mice were metastasis-free; also recorded: significant inhibition
- reduction of the metastatic burden ([1]; different target organs): highly significant and widespread reduction
- penetration of the blood-brain barrier [2]: excellent penetration
